Laboratory results: patent US20070292492A1, “PHARMACEUTICAL FORMULATIONS FOR IONTOPHORETIC TETRACYCLINE ANTIBIOTIC DELIVERY” (priority 2006, published 2007)
Counter-ions that a name gives are not always drawn. Like-named read-outs stand apart in the source and are kept apart here.

Key:
[1] = type: in vitro ADME, hairless rat
Description: • Freshly excised full thickness hairless rat skin (approximately 1 mm thick) was mounted in between the donor and receptor compartments of the horizontal diffusion cells with the stratum corneum facing the donor compartment. • The receptor compartment contained phosphate buffer (4 ml) at pH 7.4, and the donor compartment contained one of the following tetracycline hydrochloride solutions (4 ml): water (pH 2.1, 37 mg/ml), citrate buffer (pH 3.0, 9 mg/ml), phosphate buffer (pH 8.0, 0.7 mg/ml), or Teorell buffer (pH 8.3, 5.9 mg/ml, pH 11.9: 20 mg/ml). • The apparatus was maintained at 32° C., with constant stirring in both the donor and receptor compartments using magnetic stir bars to maintain sink conditions. • Silver/Silver chloride electrodes were used for iontophoresis. The area of skin exposed to the donor was 0.64 cm^2. • Current densities of 0.2 and 0.3 mA/cm^2 were applied for 1 h; and current density of 0.4 mA/cm^2 was applied for 30 min, 1 h and 2 h. Samples were collected for a period of 10 h. Both anodal and cathodal iontophoresis were performed. • At predetermined intervals, 0.5 ml of sample was collected from the receptor chamber and replenished with 0.5 ml of phosphate buffer (pH7.4). Analysis of Tetracycline Hydrochloride: • Samples from the receptor chamber were analyzed for the amount of tetracycline hydrochloride using a Shimadzu HPLC with a reverse phase column (Phenomenex, Luna C18 column with 5μ pore size). • The composition of the mobile phase used was 0.01N oxalic acid and acetonitrile (75:25) at a flow rate of 0.8 ml/min using a detection wavelength of 360 nm. Results: • The cumulative amount of drug permeating through the skin passively at the end of 10 h was 1.7±0.45 μg/cm^2 (FIG. 1). • Iontophoresis improved the delivery of the drug across the skin. i) The cumulative amount permeated through the skin at the end of 10 h by anodal iontophoresis for 1 h was 11.18±2.02 μg/cm^2. ii) The cumulative amount of the drug delivered at the end of 10 h by cathodal iontophoresis for 1 h was 19.65±6.9 μg/cm^2 (FIGS. 1 and 2). The current density used was 0.4 mA/cm^2 in both the cases. • The cumulative amount of drug permeated through the skin increased with an increase in the current density. The cumulative amount of the drug permeated through the skin over 10 hours increased from 5.85±0.72 μg/cm^2 to 19.65±6.9 μg/cm^2 with an increase in the current density from 0.2 mA/cm^2 to 0.4 mA/cm^2 (FIG. 3). • The amount of drug permeated through the skin increased with an increase in the duration of current application. […] For a donor concentration of 10 mg/ml, 22.11 μg/cm^2 of tetracycline hydrochloride permeated through the skin as compared to 8.25 μg/cm^2 delivered from a donor concentration of 2.5 mg/ml (FIG. 5). For all the above studies except anodal iontophoresis, tetracycline hydrochloride solution in borate buffer at pH 9.4 was employed. For anodal iontophoresis, tetracycline hydrochloride in citrate buffer at pH 3.0 has been used.

[2] = In vivo intracutaneous microdialysis with cathodal iontophoresis; parameters: species or system hairless rat; details: 10 mg/mL, pH ~9.3; cathodal iontophoresis 200-400 μA/cm^2 for 0.5-4 hours; 4 hours of application time
Description: In vivo microdialysis studies were undertaken to determine the effect of current and time on the transdermal delivery of tetracycline using iontophoresis. The study placed a tetracycline formulation (10 mg/mL, pH ˜9.3) in a cartridge designed for iontophoresis. […] Cathodal iontophoresis current was varied from 200-400 μA/cm^2 for a period of 0.5-4 hours. The microdialysis dialysate samples collected were analyzed using HPLC. Potential skin irritation was monitored using chromameter, laser Doppler velocimetry (LDV) and transepidermal water loss (TEWL).

CN(C)[C@@H]1C(O)=C(C(N)=O)C(=O)[C@@]2(O)C(O)=C3C(=O)c4c(O)cccc4[C@@](C)(O)[C@H]3C[C@@H]12 [tetracycline hydrochloride]
amount of tetracycline hydrochloride permeated through the skin ([1]; hairless, rat, 2.5 mg/ml, pH 9.4): 8.25 μg/cm^2
amount of tetracycline hydrochloride permeated through the skin ([1]; hairless, rat, 10 mg/ml, pH 9.4): 22.11 μg/cm^2
cumulative amount permeated through the skin at the end of 10 h by anodal iontophoresis ([1]; hairless, rat, 10 h, 9 mg/ml, pH 3): 11.18±2.02 μg/cm^2
cumulative amount of drug permeating through the skin passively at the end of 10 h ([1]; hairless, rat, 10 h, pH 9.4): 1.7±0.45 μg/cm^2
cumulative amount of the drug delivered at the end of 10 h by cathodal iontophoresis ([1]; hairless, rat, 10 h, pH 9.4): 19.65±6.9 μg/cm^2
cumulative amount of the drug permeated through the skin over 10 hours ([1]; hairless, rat, 10 h, pH 9.4): 5.85±0.72 μg/cm^2
cumulative amount of drug permeated through the skin, cathodal iontophoresis compared to anodal iontophoresis or passive delivery ([1]; pH 9.4): significantly increased

CN(C)[C@@H]1C(O)=C(C(N)=O)C(=O)[C@@]2(O)C(O)=C3C(=O)c4c(O)cccc4[C@@](C)(O)[C@H]3C[C@@H]12 [tetracycline]
tetracycline concentration in the skin by microdialysis as a function of duration of current application [2]: highest amount of tetracycline concentration
